Data taken from ChEMBL document CHEMBL1125035, “Synthesis and biological activity of novel vitamin D analogues: 24,24-difluoro-25-hydroxy-26,27-dimethylvitamin D3 and 24,24-difluoro-1 alpha,25-dihydroxy-26,27-dimethylvitamin D3” (1990).

Assays:
Rattus norvegicus [1] = species: Rattus norvegicus; assay: Calcium binding protein induction in duodenal organ culture at a concentration of 0.1 nM in Male Albino rats; format: functional
Rattus norvegicus [2] = species: Rattus norvegicus; assay: Calcium binding protein induction in duodenal organ culture at a concentration of 10 nM in Male Albino rats; format: functional
Rattus norvegicus [3] = species: Rattus norvegicus; assay: Calcium binding protein induction in duodenal organ culture at a concentration of 1 nM in Male Albino rats; format: functional
Rattus norvegicus [4] = species: Rattus norvegicus; assay: Calcium binding protein induction in duodenal organ culture at a concentration of 0.01 nM in Male Albino rats; format: functional
[5] = Relative potency against calcium binding protein induction in duodenal organ culture at a concentration of 0.01 nM compared to 1,25-(OH)2-D3 in Male Albino rats; format: functional
[6] = biological target: T1, Vitamin D-binding protein (Rattus norvegicus) (UniProt P04276); assay: Displacement of [3H]25-(OH)-D3 from rat plasma Vitamin D binding protein; format: cell-free
T1 sequence (whole entry): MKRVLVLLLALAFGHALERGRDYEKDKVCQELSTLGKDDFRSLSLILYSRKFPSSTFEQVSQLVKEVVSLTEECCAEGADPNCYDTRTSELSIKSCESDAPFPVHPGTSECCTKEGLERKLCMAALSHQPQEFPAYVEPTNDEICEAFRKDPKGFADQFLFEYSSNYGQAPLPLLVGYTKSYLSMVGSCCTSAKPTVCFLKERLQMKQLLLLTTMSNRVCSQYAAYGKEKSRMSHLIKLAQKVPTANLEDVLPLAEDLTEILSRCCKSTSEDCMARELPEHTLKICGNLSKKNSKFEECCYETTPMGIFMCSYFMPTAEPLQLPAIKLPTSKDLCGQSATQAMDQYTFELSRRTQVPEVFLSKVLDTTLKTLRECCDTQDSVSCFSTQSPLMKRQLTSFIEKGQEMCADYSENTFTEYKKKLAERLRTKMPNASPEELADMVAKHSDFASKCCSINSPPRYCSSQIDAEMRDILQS

Gallus gallus = species: Gallus gallus; assay: Bind to chick intestinal Vitamin D3 receptor for 1,25-(OH)2-D3

SMILES | B50 [6] [nM] | B50 (Gallus gallus) [nM] | other results
C=C1/C(=C/C=C2\CCC[C@]3(C)[C@@H]([C@H](C)CCC(F)(F)C(O)(CC)CC)CC[C@@H]23)C[C@@H](O)C[C@@H]1O | – | – | Ca2+ binding protein (Rattus norvegicus [1]): 21.7 ug (100mg of duodenum)-1; Ca2+ binding protein (Rattus norvegicus [2]): 94 ug (100mg of duodenum)-1; Ca2+ binding protein (Rattus norvegicus [3]): 49.5 ug (100mg of duodenum)-1; Ca2+ binding protein (Rattus norvegicus [4]): 11.9 ug (100mg of duodenum)-1; Relative potency [5]: 325
C=C1CC[C@H](O)C/C1=C/C=C1\CCC[C@]2(C)[C@@H]([C@H](C)CCCC(C)C)CC[C@@H]12 | 338 | – | –
C=C1CC[C@H](O)C/C1=C/C=C1\CCC[C@]2(C)[C@@H]([C@H](C)CCC[C@@](C)(O)CO)CC[C@@H]12 | 4.03 | 4300 | –
C=C1/C(=C/C=C2\CCC[C@]3(C)[C@@H]([C@H](C)CCCC(C)C)CC[C@@H]23)C[C@@H](O)C[C@@H]1O | 848 | 139 | –
C=C1CC[C@H](O)C/C1=C/C=C1\CCC[C@]2(C)[C@@H]([C@H](C)CC[C@@H](O)C(C)(C)O)CC[C@@H]12 | 3.22 | 804 | –
